Ends that are not written are not given here.
Legend:
fibrinogen = molecular target: T1, fibrinogen (Homo sapiens, UniProt P02671+P02675+P02679); experiment: Initial (single point) binding screen of Tp0751 peptide library to immobilized fibrinogen; settings: absorbance 600 nm, three wells, two independent experiments, Student's two-tailed t-test against non-binding peptides
T1 construct: purchased Calbiochem, purchased from VWR International
T1 sequence (P02671 20-629 limits assumed): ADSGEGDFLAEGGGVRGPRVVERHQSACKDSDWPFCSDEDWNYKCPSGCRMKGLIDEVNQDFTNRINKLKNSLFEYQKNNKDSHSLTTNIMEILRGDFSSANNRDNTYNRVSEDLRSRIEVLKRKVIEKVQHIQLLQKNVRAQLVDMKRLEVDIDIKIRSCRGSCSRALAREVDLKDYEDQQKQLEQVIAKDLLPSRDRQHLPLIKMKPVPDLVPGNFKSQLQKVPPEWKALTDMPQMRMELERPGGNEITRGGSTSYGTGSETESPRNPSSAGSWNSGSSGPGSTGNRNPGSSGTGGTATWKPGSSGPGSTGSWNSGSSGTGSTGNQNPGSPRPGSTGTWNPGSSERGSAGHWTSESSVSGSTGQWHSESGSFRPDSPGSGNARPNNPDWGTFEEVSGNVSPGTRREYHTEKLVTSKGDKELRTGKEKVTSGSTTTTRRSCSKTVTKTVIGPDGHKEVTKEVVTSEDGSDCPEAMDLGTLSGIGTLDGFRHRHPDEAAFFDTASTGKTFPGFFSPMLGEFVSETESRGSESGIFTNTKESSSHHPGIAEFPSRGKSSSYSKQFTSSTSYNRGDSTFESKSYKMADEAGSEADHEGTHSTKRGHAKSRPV
T1 sequence (P02675 31-491): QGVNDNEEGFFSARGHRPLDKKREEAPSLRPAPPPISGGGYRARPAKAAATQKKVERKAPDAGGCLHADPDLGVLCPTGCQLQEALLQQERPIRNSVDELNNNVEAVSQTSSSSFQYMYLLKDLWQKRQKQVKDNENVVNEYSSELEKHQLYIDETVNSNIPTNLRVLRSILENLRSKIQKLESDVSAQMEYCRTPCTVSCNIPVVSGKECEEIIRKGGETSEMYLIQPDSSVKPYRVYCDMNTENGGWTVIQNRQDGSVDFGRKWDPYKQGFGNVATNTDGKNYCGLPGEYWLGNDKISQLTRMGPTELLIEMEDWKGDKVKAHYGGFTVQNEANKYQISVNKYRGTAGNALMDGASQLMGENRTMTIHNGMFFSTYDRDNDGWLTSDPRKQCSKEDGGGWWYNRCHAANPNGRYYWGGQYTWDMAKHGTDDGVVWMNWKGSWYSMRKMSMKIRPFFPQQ
T1 sequence (P02679 27-433 limits assumed): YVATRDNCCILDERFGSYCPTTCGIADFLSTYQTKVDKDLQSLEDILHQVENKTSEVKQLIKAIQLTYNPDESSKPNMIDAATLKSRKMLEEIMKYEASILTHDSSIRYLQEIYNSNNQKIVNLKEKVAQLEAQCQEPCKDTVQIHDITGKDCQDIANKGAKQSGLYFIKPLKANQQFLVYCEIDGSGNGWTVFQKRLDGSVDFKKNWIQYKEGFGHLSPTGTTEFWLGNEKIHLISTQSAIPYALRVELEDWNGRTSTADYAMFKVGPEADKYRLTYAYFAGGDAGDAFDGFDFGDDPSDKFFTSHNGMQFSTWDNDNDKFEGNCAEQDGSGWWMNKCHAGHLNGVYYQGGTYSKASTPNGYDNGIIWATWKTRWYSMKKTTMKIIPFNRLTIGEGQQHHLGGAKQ
Description: (§1) Fig 3 Tp0751 lipocalin derived peptides directly bind host proteins. (A) Thirteen overlapping Tp0751 synthetic 24-mer peptides were evaluated for binding to immobilized fibrinogen, fibronectin, collagen type I, and collagen type IV. Average absorbance readings (600 nm) from three wells are presented with bars indicating standard error and the results are representative of two independent experiments. […] Average absorbance readings (600 nm) from three wells are presented with bars indicating standard error and the results are representative of two independent experiments. […] The strand colored in cyan reflects the overlap of p10 and p11. Color coded sequences of peptides p4, p6, p10, p10scr1, and p10scr2 are shown. Arginine residues in the p10 peptides are indicated by underlining.
(§2) Plasminogen-depleted human fibrinogen (Calbiochem) was purchased from VWR International. Laminin isolated from Engelbreth-Holm-Swarm murine sarcoma basement membrane and fibronectin isolated from human plasma were purchased from Sigma-Aldrich Canada Ltd. (Oakville, ON). Human collagen types I and IV (Rockland Immunochemicals, Inc.) were purchased from VWR International.
(§3) To test for binding of synthetic Tp0751 peptides p1-p13, p1scr, p6scr, p10scr1, and p10scr2 to the host proteins fibrinogen, fibronectin, laminin, collagen type I, and collagen type IV, initial binding assays were performed as described previously. For dose-dependent binding assays, recombinant proteins were serially diluted 1:2 from either 10 μM to 0.156 μm (Tp0751_78A used for crystallization and Tp0751_78 WT) or 40 μm to 0.625 μm (peptides p4, p6, p10, p11, p10scr1, and p10scr2). Average absorbance readings (600 nm) from three wells are presented with bars indicating standard error and the results are representative of two independent experiments. Plates were read at 600 nm with a BioTek enzyme-linked immunosorbent assay plate reader (Fisher Scientific, Ottawa, ON). All statistical analyses were performed using the Student’s two-tailed t-test. Non-linear regression curves were fitted and apparent dissociation constants (K d) were calculated using GraphPad Prism data analysis software (San Diego, CA).

fibronectin = experiment: Initial (single point) binding screen of Tp0751 peptide library to immobilized fibronectin; design: species or system human; settings: absorbance 600 nm, three wells, two independent experiments, Student's two-tailed t-test against non-binding peptides
Description: as §1, §2, §3

collagen type IV = experiment: Initial (single point) binding screen of Tp0751 peptide library to immobilized collagen type IV; settings: immobilized human collagen type IV; absorbance 600 nm, three wells, two independent experiments; Student's two-tailed t-test against non-binding peptides
Description: as §1, §2, §3

Sequence | Binding to fibrinogen in initial binding screen (fibrinogen) | Binding to fibronectin in initial binding screen (fibronectin) | Binding to collagen IV in initial binding screen (collagen type IV)
HHHHHHGGAAQTHTQPPVQTAMRIALWNRA [p4] | statistically significant binding | statistically significant binding | statistically significant binding
HHHHHHQGALQHLLAGLWIQTEISPNSGDI [p6] | statistically significant binding | statistically significant binding | statistically significant binding
HHHHHHRKTVSFLTRNTAISSIRRRLEVTF [p10] | significant binding | significant binding | significant binding
HHHHHHSIRRRLEVTFESHEVIHVRAVEDV [p11] | statistically significant binding | statistically significant binding | statistically significant binding
